Results: US20130029942A1, “COMPOUNDS AND THERAPEUTICAL USES THEREOF” (Myrexis, Inc., priority 2003, published 2013)
pIC50: −log10 of the molar value. Where two headings read alike, the source gives them in different places.

Tests used:
DLD cells = experiment: Inhibition of cell proliferation (GI50), CellTiter-Glo, DLD; format: cell-based; conditions: Homo sapiens, 48 h
Description: (§1) T-47D, DLD, H1299, MX-1 and SW620 cells were grown and harvested as in Example 262. […] An aliquot of 45 μL of cells was added to a well of a 96-well microtiter plate containing 5 μL of a 10% DMSO in RPMI-1640 media solution without compound as the control sample for maximal cell proliferation (Lmax). The samples were mixed by agitation and then incubated at 37° C. for 48 h in a 5% CO2—95% humidity incubator. After incubation, the samples were removed from the incubator and 25 μL of CellTiter-Glo™ reagent (Promega) was added. The samples were mixed by agitation and incubated at room temeperature for 10-15 min. Plates were then read using a luminescent plate reader (Model SPECTRAfluor Plus, Tecan) to give Ltest values.
(§2) The samples were mixed by agitation and then incubated at 37° C. for 0.5 h in a 5% CO2—95% humidity incubator. After incubation, the samples were removed from the incubator and 25 μL of CellTiter-Glo™ reagent (Promega) was added. The samples were mixed by agitation and incubated at 37° C. for 10-15 min at room temperature in a 5% CO2—95% humidity incubator. Fluorescence was read as above, (LStart) defining luminescence for initial cell number used as baseline in GI50 determinations.

T-47D cells [1] = experiment: Caspase cascade activation / induction of apoptosis in T-47D cells (fluorogenic N-(Ac-DEVD)-N'-ethoxycarbonyl-R110 substrate); format: cell-based, human; conditions: Homo sapiens, T47D
Topoisomerase II = Topoisomerase II (Homo sapiens, UniProt P11388); experiment: Topoisomerase II activity assay (relaxation of supercoiled DNA, gel); conditions: 100 μM, pRYG DNA, FIG. 1
H1299 cells = experiment: Inhibition of cell proliferation (GI50), CellTiter-Glo, H1299; format: cell-based; conditions: Homo sapiens, NCI-H1299, 48 h
Description: as §1, §2

P388 cells = experiment: Cytotoxicity (ATP-lite cell viability), P388; format: cell-based, murine; conditions: Mus musculus; P388, 72 hours
Description: (§3) Cytotoxicity of compounds in multidrug resistant cells can be determined by administering compounds to cell lines that overexpress the multidrug resistance pump MDR-1 and determining the viability of the cell lines.
(§4) NCI-ADR/Res, MCF-7, P388, and P388/ADR cell lines were obtained from American Type Culture Collection (Manassas, Va.) and maintained in RPMI-1640 media supplemented with 10% FCS, 10 units/ml penicillin and streptomycin, 2 mM Glutamax and 1 mM sodium pyruvate (Invitrogen Corporation, Carlsbad, Calif.). For compound testing, cells were plated in 96 well dishes at a concentration of 1.5×10^4 cells/well. Cells were allowed to adhere to the plate overnight and then incubated with compounds at final concentrations ranging from 0.13 nM to 10 uM for 72 hours. Cell viability was then assessed using the ATP-lite reagent (Perkin Elmer, Foster City, Calif.). Plates were read on a Wallac Topcount luminescence reader (Perkin Elmer, Foster City, Calif.) and the results graphed in Prism software (Graphpad Software, Inc., San Diego, Calif.). Non-linear regression with variable slope analysis was performed to obtain IC50 concentration values.
(§5) Example 1 compound, docetaxel, and vinblastine were tested for their ability to kill multidrug resistant cells by administering the compounds to NCI-ADR/Res, MCF-7 cells, P388 and P388/ADR cells and determining the viability of the cells.

tubulin = tubulin (Bos taurus, UniProt P81947+Q6B856); experiment: Inhibition of tubulin polymerization (DAPI fluorescence); format: biochemical; conditions: MAP-rich tubulin, 30 minutes at 37° C.
Description: Lyophilized tubulin (Cytoskeleton #ML113, 1 mg, MAP-rich) was assayed for the effect of the test compound on tubulin polymerization as measured by change in fluorescence for 4′,6-diamidino-2-phenylindole (DAPI) (Barron, D. M. et al. Analytical Biochem., 2003, 315, 49-56). 1 μl of serial dilutions of each test compound (from 100×DMSO stock) was added in 96 well plate format and preincubated for 30 minutes with 94 ul of the non-GTP supplemented tubulin supernatant. 5 μl of DAPI/GTP solution was added to initiate polymerization and incubated for 30 minutes at 37° C. Fluorescence was read with excitation 350 nm, emission wavelength 485 nm on a Tecan Spectraflour Plus. Polymerized tubulin (DMSO and with the tubulin stabilizer Taxol® (paclitaxel)) gives a higher DAPI fluorescence as compared to non-polymerized tubulin (vinblastine and colchicine used to determine baseline).

NCI-ADR/Res cells = experiment: Cytotoxicity (ATP-lite cell viability), MDR-1 over-expressing NCI-ADR/Res; format: cell-based; conditions: Homo sapiens, 72 hours
Description: as §3, §4, §5

SW620 cells = experiment: Inhibition of cell proliferation (GI50), CellTiter-Glo, SW620; format: cell-based; conditions: Homo sapiens, SW-620, 48 h
Description: as §1, §2

MCF-7 cells = experiment: Cytotoxicity (ATP-lite cell viability), MCF-7; format: cell-based; conditions: Homo sapiens, MCF7; MCF-7, 72 hours
Description: as §3, §4, §5

topoisomerase I = target: T1, topoisomerase I (Homo sapiens, UniProt P11387); experiment: Topoisomerase I activity assay (relaxation of supercoiled DNA, gel); conditions: Form I DNA, varying concentrations, FIG. 2
T1 sequence (P11387 1-765): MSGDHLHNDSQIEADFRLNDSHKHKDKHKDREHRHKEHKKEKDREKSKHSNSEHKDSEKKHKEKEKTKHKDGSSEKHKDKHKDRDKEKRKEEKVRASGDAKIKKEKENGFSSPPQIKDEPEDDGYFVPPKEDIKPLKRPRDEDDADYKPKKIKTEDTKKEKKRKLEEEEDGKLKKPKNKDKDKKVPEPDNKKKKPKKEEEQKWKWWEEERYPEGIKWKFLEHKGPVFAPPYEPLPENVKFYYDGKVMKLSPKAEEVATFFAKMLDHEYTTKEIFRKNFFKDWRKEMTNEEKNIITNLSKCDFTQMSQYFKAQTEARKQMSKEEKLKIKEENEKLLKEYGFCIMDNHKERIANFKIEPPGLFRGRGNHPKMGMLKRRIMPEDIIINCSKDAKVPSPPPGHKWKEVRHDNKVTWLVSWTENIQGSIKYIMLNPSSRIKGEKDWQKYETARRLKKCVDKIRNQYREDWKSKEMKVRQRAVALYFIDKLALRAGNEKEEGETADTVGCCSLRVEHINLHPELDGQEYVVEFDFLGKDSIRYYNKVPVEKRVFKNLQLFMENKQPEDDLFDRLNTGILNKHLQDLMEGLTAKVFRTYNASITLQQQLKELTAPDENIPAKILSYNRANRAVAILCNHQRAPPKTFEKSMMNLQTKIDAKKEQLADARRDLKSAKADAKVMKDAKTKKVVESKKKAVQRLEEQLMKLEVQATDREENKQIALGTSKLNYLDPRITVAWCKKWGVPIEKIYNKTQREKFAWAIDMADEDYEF

P388/ADR cells = experiment: Cytotoxicity (ATP-lite cell viability), MDR-1 over-expressing P388/ADR; format: cell-based; conditions: Mus musculus, 72 hours
Description: as §3, §4, §5

T-47D cells [2] = experiment: Inhibition of cell proliferation (GI50), CellTiter-Glo, T-47D; format: cell-based; conditions: Homo sapiens, T47D, 48 h
Description: as §1, §2

MX-1 cells = experiment: Inhibition of cell proliferation (GI50), CellTiter-Glo, MX-1; format: cell-based; conditions: Homo sapiens, MX1, 48 h
Description: as §1, §2

[3] = target: T2, Human Type II Topoisomerase (p170 Form) (Homo sapiens, UniProt P11388); experiment: Photo-crosslinking of radiolabeled compound to Topoisomerase II (SDS gel, autoradiography); format: binding; conditions: 50 nM, 60 minutes at room temperature, UV 254 nm, FIG. 3
T2 construct: purchased TopoGEN, Inc., Columbus, Ohio
Description: 30 Units (15 ul) Human Type II Topoisomerase (p170 Form) (from TopoGEN, Inc., Columbus, Ohio) was incubated with 50 nM radiolabeled Example 102 compound for 60 minutes at room temperature.
Radiolabeled Example 102 compound stock is 16.67 uM, 60 Ci/mmol, 1 mCi/ml American Radiolabeled Chemicals, Inc., St. Louis, Mo. Samples were either UV irradiated (+) with a short wavelength UV Source (254 nm) for 10 minutes at a distance of 3.5 cm or not irradiated (−). 8 ul of 5× sample buffer (150 mM Tris, pH 6.8, 50% glycerol, 1% SDS, 50 mM dithiothreitol, 62 mg/ml bromophenol blue) was added to the samples and boiled for 5 minutes. The entire sample was then loaded onto a 6% Tris-Glycine SDS-gel (10 well, 1.5 mm thickness) (Invitrogen, Carlsbad, Calif.). The gel was stained with 1% Coomassie Brilliant Blue in 40% methanol, 7.5% acetic acid for 2 hours then de-stained in several changes of de-stainer (40% methanol, 7.5% acetic acid). The gel was then incubated in Amplify (Amersham, Piscataway, N.J.) for 30 minutes at room temperature and then dried down on Whatman filter paper at 80° C. for 2 hours on a gel dryer. The dried gel was put on Hyperfilm (Amersham) in a film cassette and placed at −80° C. for 5-7 days.

T2 sequence (P11388 whole entry): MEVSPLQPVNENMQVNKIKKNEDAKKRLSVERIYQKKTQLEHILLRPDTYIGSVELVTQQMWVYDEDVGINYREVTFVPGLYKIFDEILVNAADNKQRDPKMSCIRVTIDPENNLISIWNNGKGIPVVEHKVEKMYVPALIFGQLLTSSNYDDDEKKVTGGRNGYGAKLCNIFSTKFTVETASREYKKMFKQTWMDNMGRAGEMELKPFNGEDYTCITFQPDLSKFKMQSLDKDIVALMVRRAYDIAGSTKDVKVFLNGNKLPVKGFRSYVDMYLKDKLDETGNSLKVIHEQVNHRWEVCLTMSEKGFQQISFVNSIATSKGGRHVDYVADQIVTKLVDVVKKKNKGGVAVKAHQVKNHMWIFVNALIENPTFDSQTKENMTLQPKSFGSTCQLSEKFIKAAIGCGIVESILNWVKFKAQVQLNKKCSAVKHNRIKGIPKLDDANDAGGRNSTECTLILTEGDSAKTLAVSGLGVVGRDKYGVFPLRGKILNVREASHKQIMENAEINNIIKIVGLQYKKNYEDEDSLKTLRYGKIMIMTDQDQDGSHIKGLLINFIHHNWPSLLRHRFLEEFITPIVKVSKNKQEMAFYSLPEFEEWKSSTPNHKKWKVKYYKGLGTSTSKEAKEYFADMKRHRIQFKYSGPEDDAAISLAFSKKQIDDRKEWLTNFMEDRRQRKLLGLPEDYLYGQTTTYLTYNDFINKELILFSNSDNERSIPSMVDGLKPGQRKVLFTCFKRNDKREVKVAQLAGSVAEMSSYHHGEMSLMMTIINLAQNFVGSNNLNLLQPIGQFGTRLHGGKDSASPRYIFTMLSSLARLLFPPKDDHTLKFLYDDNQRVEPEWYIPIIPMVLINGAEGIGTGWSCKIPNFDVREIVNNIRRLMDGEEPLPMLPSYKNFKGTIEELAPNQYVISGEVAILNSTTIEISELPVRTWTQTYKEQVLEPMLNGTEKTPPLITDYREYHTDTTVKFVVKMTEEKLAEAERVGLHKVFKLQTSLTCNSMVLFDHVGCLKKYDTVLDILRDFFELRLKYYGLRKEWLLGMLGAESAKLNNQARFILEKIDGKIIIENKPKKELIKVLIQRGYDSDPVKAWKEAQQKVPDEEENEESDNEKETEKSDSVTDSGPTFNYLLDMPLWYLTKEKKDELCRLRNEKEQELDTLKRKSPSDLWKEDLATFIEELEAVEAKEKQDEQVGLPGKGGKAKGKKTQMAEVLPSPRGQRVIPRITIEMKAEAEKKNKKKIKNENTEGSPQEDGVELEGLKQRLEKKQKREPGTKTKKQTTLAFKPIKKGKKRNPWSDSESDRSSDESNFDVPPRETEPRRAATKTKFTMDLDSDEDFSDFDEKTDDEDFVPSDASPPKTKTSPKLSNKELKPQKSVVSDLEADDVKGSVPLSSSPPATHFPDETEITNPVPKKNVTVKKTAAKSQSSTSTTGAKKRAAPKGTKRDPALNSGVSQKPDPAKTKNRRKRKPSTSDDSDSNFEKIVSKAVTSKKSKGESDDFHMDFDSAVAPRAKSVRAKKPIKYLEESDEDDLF
Chain of Topoisomerase II (P11388 whole entry): as above
Chain of tubulin (P81947 whole entry): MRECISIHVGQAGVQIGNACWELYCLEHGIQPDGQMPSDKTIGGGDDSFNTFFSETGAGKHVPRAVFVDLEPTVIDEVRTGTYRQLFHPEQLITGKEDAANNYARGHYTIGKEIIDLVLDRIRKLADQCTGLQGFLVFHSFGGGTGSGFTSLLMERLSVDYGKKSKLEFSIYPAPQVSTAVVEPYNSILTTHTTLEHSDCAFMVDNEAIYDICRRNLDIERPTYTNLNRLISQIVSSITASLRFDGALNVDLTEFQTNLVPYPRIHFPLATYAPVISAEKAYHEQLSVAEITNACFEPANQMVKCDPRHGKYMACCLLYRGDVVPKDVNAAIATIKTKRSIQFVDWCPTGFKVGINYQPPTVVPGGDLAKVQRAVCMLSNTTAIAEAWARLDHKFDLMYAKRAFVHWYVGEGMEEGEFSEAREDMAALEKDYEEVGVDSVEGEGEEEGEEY
Chain of tubulin (Q6B856 whole entry): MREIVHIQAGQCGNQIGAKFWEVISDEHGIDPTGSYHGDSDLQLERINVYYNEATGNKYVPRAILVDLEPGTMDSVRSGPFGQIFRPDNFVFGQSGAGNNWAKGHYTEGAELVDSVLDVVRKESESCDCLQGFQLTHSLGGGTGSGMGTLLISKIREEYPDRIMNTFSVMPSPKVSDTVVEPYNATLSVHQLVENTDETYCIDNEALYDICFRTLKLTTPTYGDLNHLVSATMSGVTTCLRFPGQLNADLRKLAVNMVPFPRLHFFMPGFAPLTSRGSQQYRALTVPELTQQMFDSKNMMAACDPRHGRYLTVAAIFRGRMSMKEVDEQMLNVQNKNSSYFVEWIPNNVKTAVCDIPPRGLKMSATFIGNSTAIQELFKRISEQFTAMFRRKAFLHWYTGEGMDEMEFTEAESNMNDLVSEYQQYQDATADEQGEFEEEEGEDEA

Compound | GI50 (DLD cells) | EC50 (T-47D cells [1]; 24 h, read-out: T-47D (24 hr) EC50 (nM)) | EC50 (T-47D cells [1]; read-out: Caspase activation (EC50 nM)) | Inhibition of topoisomerase II-dependent relaxation of supercoiled DNA (Topoisomerase II) | GI50 (H1299 cells) | IC50 (P388 cells) | pIC50 (tubulin) | IC50 (NCI-ADR/Res cells) | GI50 (SW620 cells) | IC50 (MCF-7 cells) | Effect on topoisomerase I-dependent relaxation of supercoiled DNA (topoisomerase I) | IC50 (P388/ADR cells) | GI50 (T-47D cells [2]) | GI50 (MX-1 cells) | Binding to Topoisomerase II (crosslink on UV irradiation) [3]
COc1ccc(N(C)c2nc(Cl)nc3ccccc23)cc1 [Example 1] | 8 nM | 2 nM | 2 nM | inhibition of DNA relaxation is substantial | 6 nM | 1.1 nM | > 6.30 | 1.3 nM | 3 nM | 2.9 nM | no apparent effect on topoisomerase I activity | 2.7 nM | 8 nM | 5 nM | –
Radiolabeled (4-Azido-phenyl)-(2-methyl-quinazolin-4-yl)-methyl-amine [Radiolabeled Example 102 compound] | – | – | – | – | – | – | – | – | – | – | – | – | – | – | binds sufficiently well to Topoisomerase II to crosslink to the enzyme when photoactivated
